The subject of one series is Tetraselmis (KAS633). The series is described as follows: Trehalose preservation, storage by air drying on paper disk. Type of series: cell-based. The note with it: for % Viability: 0M control = 100%; for Growth: final/initial density. Here is the method: (§1) Flask cultures (40 ml) of cells are grown to mid-log phase with a density between 3×10^6 and 3×10^7 cells/ml, and are centrifuged. Culture medium is removed after centrifugation, resulting in more concentrated algae cells. Cells are then re-suspended in fresh medium and left overnight. Cells are centrifuged again the next day in order to remove the medium, and are then re-suspended in fresh or salt water without any nutrient. The cell density of the suspension is determined prior to storage under the various treatments. Cells in 40 ml flask cultures are grown to mid-log phase with a density of between 3×10^6 and 3×10^7 cells/ml, and are centrifuged. Culture medium is removed after centrifugation, resulting in more concentrated algae cells. Cells are then re-suspended in ideal glass solution consisting of fresh culture medium and trehalose at a concentration of 0.1M, 0.3M, and 0.5M (dihydrate trehalose 100 from Hayashibara Co. Ltd, Okayama, Japan), respectively, and left overnight with mild agitation. Cells are centrifuged again to remove the ideal glass solution the next day, and are re-suspended in fresh or salt water without any nutrient. The cell density of the resulting suspension is determined prior to storage under the various treatments. (Some cells were also treated with a 0.5M sorbitol solution). In one specific embodiment, algae cells can be stored under air-dry conditions using autoclaved sterilized filter paper disks (15 mm Whatman Grade 1, Fisher Scientific 09-805-1B). Specifically, after one piece of paper disk is placed into each well of BD Falcon 12-well tissue culture plates, 0.1 ml algae cell suspension is placed onto each disk. The liquid cell suspension is allowed to air dry in a laminar flow hood for 1 hour. After 1 hour, the plates are closed and placed under low light at ambient temperature. Algae stored under the above preservation conditions for 5 months can be subsequently rejuvenated by removing the paper disks from the 12-well plates and placing cells in 5 ml of fresh medium under light. Cell viability is determined by comparing the cell growth in control set with the experimental set. Specifically, cell counts are performed on all samples. The averaged density value (in cells per ml) for all the cultures after treatment is defined as “rejuvenation cell count.” In some samples, the percent recovery of cells immediately after storage is also determined. The formulae are illustrated as follows: Growth=(rejuvenation cell count)/(initial cell count) Cell recovery after storage=(cell density after storage)/(initial cell density), with controls set at 100% cell recovery. Viability after storage and rejuvenation in nutrient medium=(Growth of treatment)/(Growth of control)×100%, with controls set at 100% viability

The subject of the next series is Chlorella (KAS603). Described as above. Type of series: cell-based. The conditions noted are these: for % Viability: 0M control = 100%; for Growth: final/initial density. The protocol: as §1
The mark [1] stands for this setting: 0.1M trehalose in F/2, 20 weeks storage in water (no nutrients).
Setting [2] is: 0.1M trehalose in F/2, 20 weeks storage.
The mark [3] stands for this setting: 0.3M trehalose in F/2, 20 weeks storage in water (no nutrients).
Where [4] appears, read: 0.3M trehalose in F/2, 20 weeks storage.
[5] abbreviates: 0.5M trehalose in F/2, 20 weeks storage in water (no nutrients).
[6] abbreviates: 0.5M trehalose in F/2, 20 weeks storage.

In the case of `OC[C@H]1O[C@H](O[C@H]2O[C@H](CO)[C@@H](O)[C@H](O)[C@H]2O)[C@H](O)[C@@H](O)[C@@H]1O` [trehalose, α-D-glycosyl-α-D-glycosylpyranoside], the “Cell colors on paper/in medium” value in the series with Tetraselmis (KAS633) (setting [1]) is on record as “Green/green”; in the series with Tetraselmis (KAS633) (setting [5]), “White/clear”; in the series with Chlorella (KAS603) (setting [1]), “Green/green”. Besides, the “Final density after storage and 3 weeks rejuvenation” value in the series with Tetraselmis (KAS633) (setting [1]) is given as 8.60 × 10^6 cells/ml; in the series on Tetraselmis (KAS633) (setting [3]), 2.15 × 10^6 cells/ml; in the series on Tetraselmis (KAS633) (setting [5]) it was 1.915 × 10^6 cells/ml; in the series on Chlorella (KAS603) (setting [1]), 2.278 × 10^7 cells/ml; with Chlorella (KAS603) (setting [3]), 4.440 × 10^7 cells/ml; with Chlorella (KAS603) (setting [5]) it was 3.140 × 10^7 cells/ml. Also, the “% Viability” value with Tetraselmis (KAS633) (setting [2]) is given as “(80%)”; in the series on Tetraselmis (KAS633) (setting [4]) it was “(19%)”; in the series on Tetraselmis (KAS633) (setting [6]), “(16%)”; in the series on Chlorella (KAS603) (setting [2]), “(133%)”; with Chlorella (KAS603) (setting [4]) it was “(144%)”; in the series with Chlorella (KAS603) (setting [6]) it was “(133)%”. Further, the Growth was 5.51 in the series on Tetraselmis (KAS633) (setting [2]); 1.32 in the series with Tetraselmis (KAS633) (setting [4]); 1.10 in the series with Tetraselmis (KAS633) (setting [6]); 1.433 in the series with Chlorella (KAS603) (setting [2]); 1.55 in the series on Chlorella (KAS603) (setting [4]); 1.43 with Chlorella (KAS603) (setting [6]).
